# Laboratory results published in the NIST ThermoML archive (doi:10.1016/j.fluid.2007.07.029).
# ± gives the expanded uncertainty stated by the source.
# Details: Liquid, Transpiration method
structure (smiles),measurement,setting,value
CCCCC(=O)OCC(COC(=O)CCCC)(COC(=O)CCCC)COC(=O)CCCC [pentaerythritol tetrapentanoate],vapor or sublimation pressure,334.02 K,2.55e-07 ± 8.7e-08 kPa
same,vapor or sublimation pressure,353.94 K,2.88e-06 ± 2.9e-07 kPa
same,vapor or sublimation pressure,373.62 K,2.61e-05 ± 2.3e-06 kPa
same,vapor or sublimation pressure,393.34 K,0.000166 ± 1.5e-05 kPa
same,vapor or sublimation pressure,413.08 K,0.000935 ± 8.2e-05 kPa
CCCCC(CC)C(=O)OCC(COC(=O)C(CC)CCCC)(COC(=O)C(CC)CCCC)COC(=O)C(CC)CCCC (stereo not given) [pentaerythritol tetra(2-ethylhexanoate)],vapor or sublimation pressure,353.96 K,1.27e-07 ± 8.2e-08 kPa
same,vapor or sublimation pressure,363.89 K,3.67e-07 ± 9.2e-08 kPa
same,vapor or sublimation pressure,373.81 K,1.07e-06 ± 1.4e-07 kPa
same,vapor or sublimation pressure,383.56 K,3.37e-06 ± 3.3e-07 kPa
same,vapor or sublimation pressure,393.56 K,8.94e-06 ± 8.1e-07 kPa
same,vapor or sublimation pressure,403.44 K,2.37e-05 ± 2.1e-06 kPa
same,vapor or sublimation pressure,413.44 K,5.82e-05 ± 5.1e-06 kPa
same,vapor or sublimation pressure,423.4 K,0.000133 ± 1.2e-05 kPa
same,vapor or sublimation pressure,433.18 K,0.000287 ± 2.5e-05 kPa
same,vapor or sublimation pressure,443.17 K,0.000644 ± 5.6e-05 kPa
CCCCCCCCC(=O)OCC(COC(=O)CCCCCCCC)(COC(=O)CCCCCCCC)COC(=O)CCCCCCCC [pentaerythritol tetranonanoate],vapor or sublimation pressure,394.55 K,5.57e-08 ± 8e-08 kPa
same,vapor or sublimation pressure,414.72 K,5.21e-07 ± 9.9e-08 kPa
same,vapor or sublimation pressure,435.03 K,3.98e-06 ± 3.8e-07 kPa
same,vapor or sublimation pressure,435.11 K,3.97e-06 ± 3.8e-07 kPa
same,vapor or sublimation pressure,455.36 K,2.82e-05 ± 2.5e-06 kPa
same,vapor or sublimation pressure,476.47 K,0.000174 ± 1.5e-05 kPa
CCCCCCC(=O)OCC(COC(=O)CCCCCC)(COC(=O)CCCCCC)COC(=O)CCCCCC [pentaerythritol tetraheptanoate],vapor or sublimation pressure,373.81 K,2.58e-07 ± 8.8e-08 kPa
same,vapor or sublimation pressure,393.48 K,2.61e-06 ± 2.7e-07 kPa
same,vapor or sublimation pressure,413.4 K,2.2e-05 ± 2e-06 kPa
same,vapor or sublimation pressure,433.36 K,0.000131 ± 1.2e-05 kPa
